# Assay results as given in patent US20200205401A1, “LACTONES AS SOLVENTS IN AGROCHEMICAL FORMULATIONS” (priority 2017, published 2020).
# Several values for one entry are separate records, joined by “and”; a condition that tells them apart may be missing. Equal values may be shown once. Where a name gives a salt, the structure may show the parent alone. Read-outs that look alike come from different tables or passages of the source.
# How the values were obtained:
# [1] = Azoxystrobin dissolved in organic liquid, diluted with 20 volumes of water, visual assessment of layers or crystals; format: physicochemical; settings: water 20 times the solvent volume, assessed visually at 48 hours
# Protocol: Azoxystrobin was dissolved in a range of organic liquids, some of which are known to be solvents for agrochemicals, at room temperature and allowed to equilibrate. A measured quantity of water was added and each mixture was shaken. The volume of water was 20 times greater than the volume of organic liquid/solvent. After settling the samples were assessed as being either (i) split into two layers with no evidence of pesticide crystalisation, or (ii) identified as a single layer where the pesticide had precipitated out as crystals.
# Samples were assessed after 24 and 48 hours. The log P octanol values for the solvents have been taken from the literature or, where this value was not available, were estimated using the program ProPred™ (ICAS ProPred™, KT Consortium, DTU Kemiteknik, Lyngby, Denmark). Where values were estimated, a simple check was carried out using measuring cylinders with 50/50 volumes of octanol and water. Solvent was added to the cylinder until a clear observation of the effect of the addition was apparent.
# [2] = solvents of Table 2/3; literature, or estimated with ProPred where not available; cited from earlier work
# [3] = Azoxystrobin dissolved in organic liquid, diluted with 20 volumes of water, visual assessment of layers or crystals; format: physicochemical
# [4] = Aqueous solubility of gamma caprolactone by HPLC; format: physicochemical; settings: calculated mean of a set of six measurements
# Protocol: The aqueous solubility of gamma caprolactone was measured using HPLC chromatography. Several samples of the lactone were equilibrated at room temperature with an equal volume of water. The samples were left for two weeks then analysed by HPLC.
# [5] = log P octanol by octanol saturated chromatography column; format: physicochemical; settings: octanol/water (octanol saturated chromatography column); 25° C., pH 6.98; read-out: octanol water partition coefficient (log P octanol)
# Description: Samples of gamma caprolactone were examined using an octanol saturated chromatography column.
# [6] = 5% w/w solutions of agrochemicals in solvent diluted into water 20:1, appearance; format: physicochemical; settings: for APPEARANCE OF FORMULATION, Difenoconazole: 5% w/w difenoconazole in solvent; for APPEARANCE OF FORMULATION, Difenoconazole / APPEARANCE OF FORMULATION, Fludioxonil / APPEARANCE OF FORMULATION, Mandipropamid / APPEARANCE OF FORMULATION, Pinoxaden: diluted into water 20:1; for APPEARANCE OF FORMULATION, Fludioxonil: 5% w/w fludioxonil in solvent; for APPEARANCE OF FORMULATION, Mandipropamid: 5% w/w mandipropamid in solvent; for APPEARANCE OF FORMULATION, Pinoxaden: 5% w/w pinoxaden in solvent; for appearance with each of the agrochemical active ingredients: mandipropamid, fludioxonil, pinoxaden, difenoconazole, 5% w/w, diluted 20:1
# Protocol: In this example several pesticidally active agrochemical ingredients (mandipropamid, fludioxonil, pinoxaden, and difenoconazole) were dissolved in each of the three solvents to give solutions of 5% w/w. Each solution was then diluted into water to form a 20:1 mixture.
# [7] = 20° C.; cited from earlier work
Compound,APPEARANCE (azoxystrobin solution in solvent after addition of water) [1],logP octanol [2],also measured
CC(=O)c1ccccc1 [Acetophenone],2 layer,–,–
OCc1ccccc1 [Benzyl alcohol],2 layer,–,–
CCCCOC(=O)c1ccccc1 [Butyl benzoate],2 layer,–,–
OC1CCCCC1 [Cyclohexanol],2 layer,–,–
CCOC(=O)/C=C/C(=O)OCC [Diethyl fumarate],2 layer,–,–
CCCCCCOCCOCCO [Diethylene glycol hexyl ether],2 layer,2.16,–
CC(O)C(=O)N(C)C (stereo not drawn) [Dimethyl lactamide],Crystallised,−0.22,–
COC(C)COC(C)CO (stereo not drawn) [Dipropylene glycol monomethyl ether],Crystallised,–,–
OCCO [Ethylene glycol],–,–,APPEARANCE (azoxystrobin solution in solvent after addition of water) [3]: Crystallised
COC(=O)c1ccccc1 [Methyl benzoate],2 layer,1.85,–
COC(=O)C(C)O (stereo not drawn) [Methyl lactate],Crystallised,–,–
CCCOC(=O)c1ccccc1 [Propyl benzoate],2 layer,–,–
CCCOC(=O)C(C)O (stereo not drawn) [Propyl lactate],2 layer,–,–
CC(=O)OCC(C)OC(C)=O (stereo not drawn) [Propylene glycol diacetate],Crystallised,0.94,–
CCCCOCC(C)O (stereo not drawn) [Propylene glycol n-butyl ether],2 layer,–,–
CC(=O)OCC(COC(C)=O)OC(C)=O [Triacetin],2 layer,–,–
CCOP(=O)(OCC)OCC [Triethyl phosphate],Crystallised,0.28,–
O=C1CCCO1 [γ-Butyrolactone],Crystallised,−0.60,–
"CCC1CCC(=O)O1 (stereo not drawn) [γ-Caprolactone, 5-ethyltetrahydrofuran-2-one]",–,–,"Aqueous solubility, Mean [4]: 10.93 % w/w and 11.01 % w/w; chromatographic logP [5]: 0.34; APPEARANCE OF FORMULATION, Difenoconazole [6]: 2 layers; APPEARANCE OF FORMULATION, Fludioxonil [6]: 2 layers; APPEARANCE OF FORMULATION, Mandipropamid [6]: 2 layer; APPEARANCE OF FORMULATION, Pinoxaden [6]: 2 layers; appearance with each of the agrochemical active ingredients [6]: two-layer system; appearance after further 100-fold dilution in water [3]: two layers still did not become miscible"
CC1CCC(=O)O1 (stereo not drawn) [γ-Valerolactone],Crystallised,0.21,–
O=C1CCCCO1 [δ-Valerolactone],Crystallised,−0.26,–
O=C1CCCCCO1 [ε-Caprolactone],Crystallised,0.70,–
Butylene carbonate,2 layer,1.21,–
Diethylene carbonate,–,–,APPEARANCE (azoxystrobin solution in solvent after addition of water) [3]: 2 layer
Hexylene glycol,Crystallised,–,"APPEARANCE OF FORMULATION, Difenoconazole [6]: Crystallised; APPEARANCE OF FORMULATION, Fludioxonil [6]: Crystallised; APPEARANCE OF FORMULATION, Mandipropamid [6]: Crystallised; APPEARANCE OF FORMULATION, Pinoxaden [6]: Crystallised; appearance with each of the agrochemical active ingredients [6]: crystallisation; miscibility with water [7]: fully miscible"
